Here are results for 27 compounds from PubChem BioAssay (NCI).

Common to all, as to experiment: DTP human tumour cell line panel, 48 h
Test [1] has as its system SF-539 CNS.
Test [2] relates to DU-145 prostate.
In test [3] the test system is OVCAR-4 ovarian.
For test [4], the system named is SK-MEL-2 melanoma.
The test system of test [5] is HCT-116 colon.
In test [6] the test system is PC-3 prostate.
Test [7] relates to 786-0 renal.
Test [8] concerns MDA-MB-231 breast.
Test [9] relates to LOX IMVI melanoma.
Test [10] relates to COLO 205 colon.

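Dose response: 5 concentrations. Exposure: 48 h. Format: 96-well plates. Endpoint: linear interpolation; highest concentration if not reached. Definition used: TGI = concentration required for complete inhibition of growth.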 Where a SMILES comes first, the peptide text is derived from it. [ ]: non-standard residue; d: D form. The star is where a group is joined. hSer = N[CH](CCO)C(=O)O; Boc = CC(C)(C)OC(=O)*

As to `NC1=CN(CCCO)C2=N/C(=C\c3ccco3)C(=O)N12`, the TGI in [1], in [2], in [3], in test [4], in test [5] and in test [6] was above 100 µM in each case. In addition, the TGI in [7], in [8], in test [9] and in test [10] was above 100 µM in each case.

As for `COCCC(NC(=O)C(CC(C)C)NC(=O)OC(C)(C)C)C(N)=O` (stereo not drawn) (Boc-Leu-[hSer](Me)-NH2; configuration not given here), the TGI in test [1], in [2], in test [3], in test [4], in test [5] and in test [6] was above 100 µM in each case. The TGI in [7], in test [8], in test [9] and in test [10] was above 100 µM throughout.

Regarding `c1ccc(COc2ccc(C[P+](c3ccccc3)(c3ccccc3)c3ccccc3)cc2)cc1`, the TGI in [1] was determined as 3.5 µM; in test [2], 12.9 µM; in test [3] it was 1.84 µM; in [4], 0.727 µM; in test [5], 1.68 µM; in [6], 3.07 µM. For the same compound, the TGI was 3.57 µM in test [7], 4.86 µM in test [8], 2.56 µM in test [9] and 3.26 µM in test [10].

As to `N#Cc1[nH]c(=O)n(-c2ccc([N+](=O)[O-])cc2)c1N`, the TGI in test [1], in [2], in [3], in [4], in [5] and in [6] was above 10 µM in each case. Also, the TGI in test [7], in test [8], in [9] and in [10] was above 10 µM throughout.

With `CCOC(=O)NNC(=O)NCCNC(=O)NNC(=O)OCC`, the TGI in test [1], in [2], in test [3], in [4], in [5] and in [6] was above 100 µM throughout. In addition, the TGI in [7], in [8], in test [9] and in [10] was above 100 µM each time.

On to `CC12CC3c4ccccc4CN1C3(c1ccccc1)OC2=O` (stereo not given), for which the TGI in test [1], in test [2], in test [3], in test [4], in [5] and in test [6] was above 100 µM each time. Also, the total growth inhibition concentration (TGI) in [7], in test [8], in test [9] and in test [10] was above 100 µM throughout.

As to `COc1ccc(-c2nc3ncccn3c2-c2ccc(S(C)=O)cc2)cc1` (stereo not given), the TGI in [1], in test [2], in test [3], in test [4], in test [5] and in [6] was above 100 µM throughout. The TGI in test [7], in [8], in [9] and in test [10] was above 100 µM each time.

As for `CC(C)(C)C1CCC2c3c([nH]c4ccccc34)C3C(=O)N(c4cc(Br)cc(Br)c4)C(=O)C3C2C1` (stereo not given), the TGI in test [1] is 34 µM; in test [2] it was above 100 µM; in [3], 69.7 µM; in test [4] it was 47.5 µM; in [5] it was 23.1 µM; in test [6], 33.2 µM. Further, the TGI was 18.6 µM in test [7], 58.8 µM in test [8], above 100 µM in [9] and above 100 µM in test [10].

Take `O=[N+]([O-])/C(C(Cl)=C(Cl)Cl)=C1\Nc2ccccc2O1`: the TGI in test [1] is 38.6 µM; in [2], above 100 µM; in [3], above 100 µM; in [4], above 100 µM; in test [5] it was above 100 µM; in test [6] it was above 100 µM. Besides, the TGI in [7] was 32.1 µM; in test [8] it was above 100 µM; in [9], above 100 µM; in test [10], above 100 µM.

Take `Cc1c2c(n3c(nc4ccccc43)c1C#N)N(c1ccc(Cl)cc1)CC2`: the TGI in [1], in [2], in test [3], in test [4], in [5] and in test [6] was above 100 µM each time. Further, the TGI in test [7], in test [8], in test [9] and in test [10] was above 100 µM each time.

For the compound `N#CC(c1ccc(O)cc1)N1CCN(C(C#N)c2ccc(O)cc2)CC1` (stereo not given), the TGI in [1] was above 100 µM; in [2], above 91.5 µM; in test [3], above 100 µM; in [4], above 100 µM; in [5], above 100 µM; in test [6], above 100 µM. The TGI in [7] was above 100 µM; in test [8], 55.8 µM; in [9] it was above 100 µM; in [10] it was above 100 µM.

On to `N#Cc1c(-c2ccco2)c2c(n(C3OC(CO)C(O)C(O)C3O)c1=S)CCCC2` (stereo not given), for which the TGI in test [1], in test [2], in [3], in [4], in test [5] and in test [6] was above 100 µM in each case. Further, the TGI in test [7], in test [8], in test [9] and in [10] was above 100 µM throughout.

Take `CSc1n[nH]c(N)c1C(=O)Nc1ccc(Cl)cc1`: the TGI in [1] was above 100 µM; in test [2] it was above 100 µM; in [3] it was above 100 µM; in test [4], above 100 µM; in test [5], 56 µM; in test [6], above 100 µM. The TGI in test [7], in [8], in [9] and in test [10] was above 100 µM in each case.

On to `O=c1c2cc([N+](=O)[O-])ccc2n2n1Cc1ccccc1CC2`, for which the TGI in test [1], in test [2], in [3], in test [4], in [5] and in test [6] was above 100 µM each time. Besides, the concentration for total growth inhibition (TGI) in test [7], in test [8], in test [9] and in test [10] was above 100 µM throughout.

On to `O=S(=O)(O)c1ccc(NN(c2c(O)ccc3ccccc23)S(=O)(=O)O)cc1`, for which the TGI in test [1], in [2], in test [3], in test [4], in test [5] and in test [6] was above 100 µM in each case. In addition, the TGI in test [7], in test [8], in test [9] and in [10] was above 100 µM throughout.

As for `COC1/C=C\C=C(/C)C(=O)NC2=CC(=O)C(NCCCl)=C(CC(C)CC(OC)C(O)C(C)/C=C(/C)C1OC(N)=O)C2=O` (stereo not given), the TGI was determined as 2.17 µM in test [1]; 11.4 µM in test [2]; 15 µM in test [3]; 2.15 µM in test [4]; 2.88 µM in test [5]; 8.84 µM in [6]. Besides, the TGI in test [7] was determined as 9.05 µM; in test [8], 20.4 µM; in test [9] it was 0.575 µM; in test [10], 1.2 µM.

In the case of `N#CI1OC(=O)c2ccccc21`, the TGI in test [1], in test [2], in test [3], in [4], in [5] and in [6] was above 100 µM throughout. For the same compound, the TGI in [7], in test [8], in test [9] and in test [10] was above 100 µM each time.

Regarding `COc1c(C2(c3ccc(F)cc3)SCCCS2)c(=O)c1=O`, the TGI in [1], in [2], in [3], in test [4], in test [5] and in test [6] was above 100 µM throughout. Further, the total growth inhibition concentration (TGI) in [7], in test [8], in test [9] and in test [10] was above 100 µM in each case.

Regarding `[N-]=N[N+]#I1OC(C(F)(F)F)(C(F)(F)F)c2ccccc21`, the TGI in [1] worked out at 30.6 µM; in test [2], 38 µM; in test [3] it was 28.9 µM; in test [4], 32 µM; in [5], 38.2 µM; in test [6], 30.1 µM. The TGI was determined as 31.6 µM in [7], 29 µM in [8], 77.1 µM in test [9] and 27 µM in test [10].

Take `CCC1(O)C=CC(=O)C=C1`: the TGI in test [1] was 50.6 µM; in [2], above 64.4 µM; in [3], above 100 µM; in test [4], above 100 µM; in test [5], above 100 µM; in test [6], above 62.2 µM. For the same compound, the TGI in test [7] is 39.2 µM; in test [8], 36.6 µM; in test [9], 32.4 µM; in test [10], above 100 µM.

Consider `COc1ccc(C2CC(c3cc4c(C)c(C(=O)c5ccccc5)oc4cc3O)=Nc3ccccc3S2)cc1OC` (stereo not given), for which the TGI was above 86.2 µM in test [1]; above 100 µM in test [2]; above 48.9 µM in test [3]; above 100 µM in test [4]; above 100 µM in test [5]; above 100 µM in [6]. For the same compound, the TGI in test [7], in test [8], in test [9] and in test [10] was above 100 µM in each case.

For `COc1ccc(CN2C(=O)CCC/C=C\[C@H]2CI)cc1`, the TGI came to 26.4 µM in [1]; 26 µM in [2]; 22.8 µM in test [3]; 23 µM in test [4]; 24 µM in test [5]; 20.7 µM in test [6]. The TGI in test [7] was found to be 27 µM; in [8] it was 23 µM; in [9], 34 µM; in test [10], 26.9 µM.

In the case of `CCCCCCCCCCCCNC(=O)NCC(OCC)OCC`, the TGI in [1], in [2], in test [3], in test [4], in test [5] and in test [6] was above 10 µM in each case. The TGI in [7], in [8], in [9] and in [10] was above 10 µM each time.

For the compound `COC(=O)C1Cc2c(C)cccc2C1=O` (stereo not given), the TGI in test [1], in [2], in test [3], in [4], in test [5] and in test [6] was above 100 µM throughout. The TGI in [7], in [8], in test [9] and in [10] was above 100 µM each time.

`O=C(CCSC(CC(=O)c1ccc(Cl)cc1)c1ccc(Cl)cc1)Nc1ccc(Cl)cc1` (stereo not given): the TGI in test [1] was determined as 32.6 µM; in [2], 27 µM; in [3], 35.5 µM; in test [4], 28.9 µM; in test [5], 18.5 µM; in test [6], 27.1 µM. Further, the concentration for total growth inhibition (TGI) came out at 27.6 µM in test [7], 33.4 µM in test [8], 18.3 µM in test [9] and 35.2 µM in test [10].

With `O=C(Cc1ccc(Cl)c(Cl)c1)NCCCN1CCN(CCCN2CCCCC2)CC1`, the TGI was 28.8 µM in test [1]; above 100 µM in test [2]; above 100 µM in test [3]; 21.6 µM in test [4]; 32.9 µM in test [5]; 40.7 µM in [6]. The TGI is 31.7 µM in test [7], 28.8 µM in [8], 30.2 µM in [9] and 29.8 µM in [10].

`CCOn1cc(C[C@@]2(O)C(=O)OC3[C@@H](O)CO[C@@]32O)c2ccccc21` (stereo not given in full): the TGI in [1], in test [2], in [3], in [4], in test [5] and in test [6] was above 100 µM each time. The TGI in [7], in test [8], in test [9] and in test [10] was above 100 µM throughout.
